Experimental data: patent publication US20050085556A1, “Detection of cholesterol ozonation products” (priority 2003, published 2005)
“Also recorded” adds a separate entry of the source.

Experiments:
J774.1 macrophages = assay: Lipid-loading assay (foam cell formation); assay type: cell-based, murine; conditions: LDL 100 μg/mL plus compound 20 μM, 72 h, oil red O stain
Description: Lipid-loading assay (foam cell formation). J774.1 macrophages were incubated in ATCC-recommended media containing 10% fetal bovine serum under a controlled atmosphere of 5 or 7% CO2 at 37° C., in 8-well chamber slides. […] At termination, cells were washed twice with PBS (pH 7.4). The cells were then fixed with 6% (v/v) paraformaldehyde in PBS for 30 minutes, rinsed with propylene glycol for 2 minutes and lipids were stained with 5 mg/ml Oil Red O for 8 minutes. The cells were counterstained with Harris' hematoxylin for 45 seconds, and background staining was removed with […] followed by washing once in PBS and once in tap water. Cover slips were mounted onto the glass slides using glycerol and the slide preparations were examined by light microscopy. The number of lipid-laden cells was scored out of a total of at least 100 cells counted in a single field in each slide, and expressed as a percentage of total cells. Photographs were taken at 100×magnification.

LDL (apoB-100) = LDL (apoB-100) (Homo sapiens, UniProt P04114); assay: Circular dichroism of LDL secondary structure; conditions: LDL 100 μg/ml with compound 10 μM, PBS pH 7.4, 37° C.; for random coil of LDL protein: normal LDL 27±2%; for α helical structure of LDL protein: normal LDL ~40±2%
Sequence of LDL (apoB-100) (P04114 28-4563): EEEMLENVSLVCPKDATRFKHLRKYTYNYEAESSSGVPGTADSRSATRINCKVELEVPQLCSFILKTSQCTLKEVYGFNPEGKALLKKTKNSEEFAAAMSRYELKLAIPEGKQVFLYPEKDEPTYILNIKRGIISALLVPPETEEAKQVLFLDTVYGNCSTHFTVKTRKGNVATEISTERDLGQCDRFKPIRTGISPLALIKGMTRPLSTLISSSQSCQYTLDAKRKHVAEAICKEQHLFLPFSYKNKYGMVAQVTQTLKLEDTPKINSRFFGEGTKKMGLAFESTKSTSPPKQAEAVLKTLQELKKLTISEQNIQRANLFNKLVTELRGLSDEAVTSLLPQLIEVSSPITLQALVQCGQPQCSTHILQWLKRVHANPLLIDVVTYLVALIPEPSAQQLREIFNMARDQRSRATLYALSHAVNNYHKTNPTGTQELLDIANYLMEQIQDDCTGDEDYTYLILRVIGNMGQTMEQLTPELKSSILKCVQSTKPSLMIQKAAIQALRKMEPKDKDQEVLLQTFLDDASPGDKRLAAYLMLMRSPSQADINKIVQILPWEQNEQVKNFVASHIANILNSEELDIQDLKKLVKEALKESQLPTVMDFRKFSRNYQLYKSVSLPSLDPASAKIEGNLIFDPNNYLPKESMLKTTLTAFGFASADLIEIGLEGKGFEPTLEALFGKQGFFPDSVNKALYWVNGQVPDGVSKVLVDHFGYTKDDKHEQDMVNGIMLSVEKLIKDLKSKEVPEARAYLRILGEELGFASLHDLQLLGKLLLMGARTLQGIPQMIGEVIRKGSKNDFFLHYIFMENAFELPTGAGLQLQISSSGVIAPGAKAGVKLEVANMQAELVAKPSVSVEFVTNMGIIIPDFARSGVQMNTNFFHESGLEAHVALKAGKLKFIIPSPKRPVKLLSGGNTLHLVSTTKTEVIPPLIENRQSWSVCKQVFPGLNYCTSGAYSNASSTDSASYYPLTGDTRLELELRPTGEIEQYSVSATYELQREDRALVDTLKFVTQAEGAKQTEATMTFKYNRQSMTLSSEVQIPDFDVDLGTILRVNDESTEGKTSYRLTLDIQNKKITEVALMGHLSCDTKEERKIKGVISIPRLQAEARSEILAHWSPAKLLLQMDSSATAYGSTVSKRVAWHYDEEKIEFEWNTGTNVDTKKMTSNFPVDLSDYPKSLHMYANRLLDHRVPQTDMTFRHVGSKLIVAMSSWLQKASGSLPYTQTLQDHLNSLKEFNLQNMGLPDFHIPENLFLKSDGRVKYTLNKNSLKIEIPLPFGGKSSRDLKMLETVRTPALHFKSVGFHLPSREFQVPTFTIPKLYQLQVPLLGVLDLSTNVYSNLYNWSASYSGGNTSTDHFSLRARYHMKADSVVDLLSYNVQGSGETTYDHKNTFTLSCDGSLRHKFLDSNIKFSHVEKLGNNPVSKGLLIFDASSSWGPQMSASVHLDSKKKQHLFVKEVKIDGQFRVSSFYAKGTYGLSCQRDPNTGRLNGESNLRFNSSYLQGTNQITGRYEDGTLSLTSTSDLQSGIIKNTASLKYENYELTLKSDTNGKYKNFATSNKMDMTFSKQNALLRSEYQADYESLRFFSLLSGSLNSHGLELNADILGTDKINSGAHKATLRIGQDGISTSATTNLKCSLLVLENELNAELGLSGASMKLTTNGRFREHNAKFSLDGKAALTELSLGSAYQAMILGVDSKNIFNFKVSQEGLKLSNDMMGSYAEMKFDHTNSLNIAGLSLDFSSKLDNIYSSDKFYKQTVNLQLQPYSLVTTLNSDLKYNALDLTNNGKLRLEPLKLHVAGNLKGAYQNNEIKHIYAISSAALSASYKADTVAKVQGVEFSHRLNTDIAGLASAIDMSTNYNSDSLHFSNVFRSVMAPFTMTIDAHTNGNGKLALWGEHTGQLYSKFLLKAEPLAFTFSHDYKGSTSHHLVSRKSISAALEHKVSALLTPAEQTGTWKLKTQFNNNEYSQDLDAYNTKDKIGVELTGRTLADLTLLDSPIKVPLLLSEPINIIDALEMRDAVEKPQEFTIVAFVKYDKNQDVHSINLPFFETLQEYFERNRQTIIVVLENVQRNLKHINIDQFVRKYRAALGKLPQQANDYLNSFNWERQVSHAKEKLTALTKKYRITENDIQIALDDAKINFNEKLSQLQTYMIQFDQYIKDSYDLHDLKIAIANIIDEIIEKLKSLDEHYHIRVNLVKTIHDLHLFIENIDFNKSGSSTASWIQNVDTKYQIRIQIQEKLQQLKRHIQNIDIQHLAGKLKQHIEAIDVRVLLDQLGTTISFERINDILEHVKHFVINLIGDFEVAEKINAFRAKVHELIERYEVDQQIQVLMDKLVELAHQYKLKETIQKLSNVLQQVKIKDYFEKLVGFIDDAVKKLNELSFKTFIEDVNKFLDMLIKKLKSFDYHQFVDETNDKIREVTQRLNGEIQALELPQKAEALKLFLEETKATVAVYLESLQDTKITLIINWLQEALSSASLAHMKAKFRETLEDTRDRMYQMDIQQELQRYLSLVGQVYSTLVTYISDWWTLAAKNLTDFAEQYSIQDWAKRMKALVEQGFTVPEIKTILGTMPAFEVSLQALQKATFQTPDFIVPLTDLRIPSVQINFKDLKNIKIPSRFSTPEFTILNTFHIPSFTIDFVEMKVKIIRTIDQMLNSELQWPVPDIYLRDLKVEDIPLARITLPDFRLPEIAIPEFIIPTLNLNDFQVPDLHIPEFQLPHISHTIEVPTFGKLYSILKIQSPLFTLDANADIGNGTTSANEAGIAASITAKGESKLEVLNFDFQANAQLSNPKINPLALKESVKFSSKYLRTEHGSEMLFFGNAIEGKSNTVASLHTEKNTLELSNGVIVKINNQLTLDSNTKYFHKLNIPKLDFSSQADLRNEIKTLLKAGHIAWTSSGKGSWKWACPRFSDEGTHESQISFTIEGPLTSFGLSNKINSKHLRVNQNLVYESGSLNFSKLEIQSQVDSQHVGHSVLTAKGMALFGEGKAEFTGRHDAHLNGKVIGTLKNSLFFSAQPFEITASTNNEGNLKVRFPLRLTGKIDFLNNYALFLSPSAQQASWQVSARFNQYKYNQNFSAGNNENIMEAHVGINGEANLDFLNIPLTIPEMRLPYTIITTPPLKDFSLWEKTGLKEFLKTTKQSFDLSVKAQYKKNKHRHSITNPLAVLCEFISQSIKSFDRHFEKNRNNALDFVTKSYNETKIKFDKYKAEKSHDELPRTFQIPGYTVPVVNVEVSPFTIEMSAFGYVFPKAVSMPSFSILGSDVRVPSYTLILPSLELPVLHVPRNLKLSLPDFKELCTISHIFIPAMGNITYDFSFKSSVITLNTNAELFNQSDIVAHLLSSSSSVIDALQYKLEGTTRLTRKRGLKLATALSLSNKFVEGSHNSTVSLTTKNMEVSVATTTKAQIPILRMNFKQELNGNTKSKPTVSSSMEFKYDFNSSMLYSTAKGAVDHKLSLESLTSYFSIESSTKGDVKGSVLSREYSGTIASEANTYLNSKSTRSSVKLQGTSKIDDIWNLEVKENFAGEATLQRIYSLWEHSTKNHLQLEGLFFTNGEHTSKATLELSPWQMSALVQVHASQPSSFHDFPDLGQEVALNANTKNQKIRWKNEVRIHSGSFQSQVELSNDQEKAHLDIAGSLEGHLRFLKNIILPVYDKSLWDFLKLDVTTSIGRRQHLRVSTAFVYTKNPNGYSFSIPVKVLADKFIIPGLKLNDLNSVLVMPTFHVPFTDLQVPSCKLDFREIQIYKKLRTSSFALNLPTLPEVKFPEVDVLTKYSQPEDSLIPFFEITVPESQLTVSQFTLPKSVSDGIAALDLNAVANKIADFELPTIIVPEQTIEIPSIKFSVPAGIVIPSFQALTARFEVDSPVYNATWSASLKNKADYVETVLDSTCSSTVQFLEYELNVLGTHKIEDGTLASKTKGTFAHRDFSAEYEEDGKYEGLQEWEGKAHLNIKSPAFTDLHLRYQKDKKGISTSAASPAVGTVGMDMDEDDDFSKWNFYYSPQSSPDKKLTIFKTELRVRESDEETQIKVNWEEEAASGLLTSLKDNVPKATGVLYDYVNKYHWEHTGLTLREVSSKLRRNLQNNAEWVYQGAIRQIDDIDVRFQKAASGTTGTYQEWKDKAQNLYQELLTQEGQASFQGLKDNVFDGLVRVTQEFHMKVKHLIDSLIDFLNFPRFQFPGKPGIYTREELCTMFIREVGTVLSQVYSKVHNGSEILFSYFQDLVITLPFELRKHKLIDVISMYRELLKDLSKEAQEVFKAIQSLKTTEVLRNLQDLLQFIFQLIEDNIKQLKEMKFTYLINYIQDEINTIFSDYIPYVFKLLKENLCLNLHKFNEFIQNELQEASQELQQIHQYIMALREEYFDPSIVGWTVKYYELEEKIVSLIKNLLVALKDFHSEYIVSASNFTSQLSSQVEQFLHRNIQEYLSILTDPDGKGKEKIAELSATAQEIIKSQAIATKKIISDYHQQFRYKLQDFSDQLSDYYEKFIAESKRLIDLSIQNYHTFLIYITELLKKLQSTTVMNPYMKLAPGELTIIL
Description: Circular dichroism. […] Spectra were recorded in the peptidic range (200-260 nm). To increase the signal-to-noise ratio, multiple spectra (three) were averaged for each measurement.

| SMILES | lipid-loading of macrophages (foam cell formation) (J774.1 macrophages) | random coil of LDL protein (LDL (apoB-100)) [%] | α helical structure of LDL protein (LDL (apoB-100)) [%] |
| --- | --- | --- | --- |
| CC(C)CCC[C@@H](C)[C@H]1CCC2C(CC=O)C([C@@]3(C)CC[C@H](O)CC3=O)CC[C@@]21C (stereo partly drawn) [4a, 3β-Hydroxy-5-oxo-5,6-secocholestan-6-al] | macrophages began lipid-loading and foam cells began to appear; also recorded: induces lipid-loading of macrophages to produce foam cells | ~39±2 | ~23±5 |
| CC(C)CCC[C@@H](C)[C@H]1CCC2C3C(CC[C@@]21C)[C@@]1(C)CC[C@H](O)C[C@@]1(O)[C@@H]3C=O (stereo partly drawn) [5a, 3β-Hydroxy-5β-hydroxy-B-norcholestane-6β-carboxaldehyde] | macrophages began lipid-loading and foam cells began to appear; also recorded: effect of ozonolysis product 4a upon macrophages was indistinguishable from the effect of ozonolysis product 5a | 32±4 | ~20±2 |
